Data: patent publication US10858335B2 (Rigel Pharmaceuticals, Inc., priority 2014, dated 2020)

These compounds were tested on GDF8 signaling (p-SMAD-3 (Ser423/425)) (assay: AlphaScreen SureFire SMAD3 (p-Ser423/425) assay, GDF8-stimulated cells (GDF pSMAD)). Settings: MPC11; GDF8-stimulated; p-SMAD3 AlphaScreen; read-out: GDF pSMAD (MPC11) (inhibition of GDF8 signaling).
Format: cell-based

| IC50 [nM] | Compound |
| --- | --- |
| 77.4 | Nc1ncnc2ccc(-c3cccnc3-c3cc(Cl)ccc3F)cc12 [compound 818, 6-(2-(5-Chloro-2-fluorophenyl)pyridin-3-yl)quinazolin-4-amine] |
| 119 | Nc1ncnc2ccc(-c3cccnc3-c3cc(Cl)c(F)cc3F)cc12 [compound 819, 6-(2-(5-Chloro-2,4-difluorophenyl)pyridin-3-yl)quinazolin-4-amine] |

Same assay, conditions: Mus musculus, MPC-11, MPC11; GDF8-stimulated; p-SMAD3 AlphaScreen; read-out: GDF pSMAD (MPC11) (inhibition of GDF8 signaling)

| Compound | IC50 [nM] |
| --- | --- |
| Cc1cc(-c2ncccc2-c2ccn3ncc(C(=O)NCCC45CCCN4CCC5)c3c2)ccc1F [compound 805, 5-(2-(4-Fluoro-3-methylphenyl)pyridin-3-yl)-N-(2-(tetrahydro-1H-pyrrolizin-7a(5H)-yl)ethyl)pyrazolo[1,5-a]pyridine-3-carboxamide] | 953 |
| Cc1c(-c2cccnc2-c2cc(Cl)ccc2F)ccc2ncnn12 [compound 812, 6-(2-(5-Chloro-2-fluorophenyl)pyridin-3-yl)-5-methyl-[1,2,4]triazolo[1,5-a]pyridine] | 2140 |
| CC(=O)NCCNC(=O)c1cnc2ccc(-c3cccnc3-c3ccc(F)c(C)c3)cn12 [compound 815, N-(2-Acetamidoethyl)-6-(2-(4-fluoro-3-methylphenyl)pyridin-3-yl)imidazo[1,2-a]pyridine-3-carboxamide] | 941 |
| CC(=O)NCCCNC(=O)c1cnc2ccc(-c3cccnc3-c3ccc(F)c(C)c3)cn12 [compound 816, N-(3-Acetamidopropyl)-6-(2-(4-fluoro-3-methylphenyl)pyridin-3-yl)imidazo[1,2-a]pyridine-3-carboxamide] | 1610 |
| Cc1cc(-c2ncccc2-c2ccc3ncc(C(=O)NCCN4CCOC4=O)n3c2)ccc1F [compound 817, 6-(2-(4-Fluoro-3-methylphenyl)pyridin-3-yl)-N-(2-(2-oxooxazolidin-3-yl)ethyl)imidazo[1,2-a]pyridine-3-carboxamide] | 584 |
| O=c1[nH]cnc2ccc(-c3cccnc3-c3cc(Cl)ccc3F)cc12 [compound 822, 6-(2-(5-Chloro-2-fluorophenyl)pyridin-3-yl)quinazolin-4(3H)-one] | 127 |
| O=c1[nH]cnc2ccc(-c3cccnc3-c3cc(Cl)c(F)cc3F)cc12 [compound 823, 6-(2-(5-Chloro-2,4-difluorophenyl)pyridin-3-yl)quinazolin-4(3H)-one] | 214 |
| Nc1ccnc2ccc(-c3cccnc3-c3ccc(F)c(Cl)c3)cc12 [compound 837, 6-(2-(3-Chloro-4-fluorophenyl)pyridin-3-yl)quinolin-4-amine] | 4860 |
| COc1ccnc2ccc(-c3cccnc3-c3cc(Cl)ccc3F)cc12 [compound 840, 6-(2-(5-Chloro-2-fluorophenyl)pyridin-3-yl)-4-methoxyquinoline] | 8140 |
| NC(=O)c1cnc2ccc(-c3cccnc3-c3ccc(F)c(Cl)c3)cn12 [compound 843, 6-(2-(3-Chloro-4-fluorophenyl)pyridin-3-yl)imidazo[1,2-a]pyridine-3-carboxamide] | 21.3 |
| Fc1ccc(-c2ncccc2-c2ccc3ncc(-c4ncn[nH]4)n3c2)cc1Cl [compound 844, 6-(2-(3-Chloro-4-fluorophenyl)pyridin-3-yl)-3-(1H-1,2,4-triazol-5-yl)imidazo[1,2-a]pyridine] | 32.4 |
| Fc1ccc(-c2ncccc2-c2ccc3ncc(-c4ncc[nH]4)n3c2)cc1Cl [compound 845, 6-(2-(3-Chloro-4-fluorophenyl)pyridin-3-yl)-3-(1H-imidazol-2-yl)imidazo[1,2-a]pyridine] | 58.8 |
| Cc1cc(-c2ncccc2-c2ccc3nccc(C(N)=O)c3c2)ccc1F [compound 846, 6-(2-(4-Fluoro-3-methylphenyl)pyridin-3-yl)quinoline-4-carboxamide] | 14300 |
| NC(=O)c1ccnc2ccc(-c3cccnc3-c3cccc(Cl)c3)cc12 [compound 848, 6-(2-(3-Chlorophenyl)pyridin-3-yl)quinoline-4-carboxamide] | 11100 |
| NC(=O)c1ccnc2ccc(-c3cccnc3-c3cc(Cl)ccc3F)cc12 [compound 849, 6-(2-(5-Chloro-2-fluorophenyl)pyridin-3-yl)quinoline-4-carboxamide] | 18100 |
| NC(=O)c1ccnc2ccc(-c3cccnc3-c3cc(Cl)c(F)cc3F)cc12 [compound 850, 6-(2-(5-Chloro-2,4-difluorophenyl)pyridin-3-yl)quinoline-4-carboxamide] | 20700 |
| Fc1ccc(-c2ncccc2-c2ccc3ncc(-c4cc[nH]n4)n3c2)cc1Cl [compound 852, 6-(2-(3-Chloro-4-fluorophenyl)pyridin-3-yl)-3-(1H-pyrazol-3-yl)imidazo[1,2-a]pyridine] | 207 |

The remaining lines, values ahead:

| IC50 [nM] | Compound |
| --- | --- |
| 1540 | Cc1cc(-c2ncccc2-c2cn3ccnc3cc2C)ccc1F [compound 808, 6-(2-(4-Fluoro-3-methylphenyl)pyridin-3-yl)-7-methylimidazo[1,2-a]pyridine] |
| 4000 | Cc1cc(-c2ncccc2-c2ccc3ncnn3c2C)ccc1F [compound 809, 6-(2-(4-Fluoro-3-methylphenyl)pyridin-3-yl)-5-methyl-[1,2,4]triazolo[1,5-a]pyridine] |
| 5780 | Cc1c(-c2cccnc2-c2ccc(F)c(Cl)c2)ccc2ncnn12 [compound 810, 6-(2-(3-Chloro-4-fluorophenyl)pyridin-3-yl)-5-methyl-[1,2,4]triazolo[1,5-a]pyridine] |
| 2920 | Cc1c(-c2cccnc2-c2cccc(Cl)c2)ccc2ncnn12 [compound 811, 6-(2-(3-Chlorophenyl)pyridin-3-yl)-5-methyl-[1,2,4]triazolo[1,5-a]pyridine] |
| 2430 | Cc1c(-c2cccnc2-c2cc(Cl)c(F)cc2F)ccc2ncnn12 [compound 813, 6-(2-(5-Chloro-2,4-difluorophenyl)pyridin-3-yl)-5-methyl-[1,2,4]triazolo[1,5-a]pyridine] |
| 3060 | COc1ncnc2ccc(-c3cccnc3-c3cc(Cl)ccc3F)cc12 [compound 820, 6-(2-(5-Chloro-2-fluorophenyl)pyridin-3-yl)-4-methoxyquinazoline] |
| 2160 | COc1ncnc2ccc(-c3cccnc3-c3cc(Cl)c(F)cc3F)cc12 [compound 821, 6-(2-(5-Chloro-2,4-difluorophenyl)pyridin-3-yl)-4-methoxyquinazoline] |
| 5940 | Cc1cc(-c2ncccc2-c2ccc3nccc(N)c3c2)ccc1F [compound 836, 6-(2-(4-Fluoro-3-methylphenyl)pyridin-3-yl)quinolin-4-amine] |
| 7640 | COc1ccnc2ccc(-c3cccnc3-c3cccc(Cl)c3)cc12 [compound 841, 6-(2-(3-Chlorophenyl)pyridin-3-yl)-4-methoxyquinoline] |
| 17400 | COc1ccnc2ccc(-c3cccnc3-c3cc(Cl)c(F)cc3F)cc12 [compound 842, 6-(2-(5-Chloro-2,4-difluorophenyl)pyridin-3-yl)-4-methoxyquinoline] |
| 881 | Cn1ccc(-c2cnc3ccc(-c4cccnc4-c4ccc(F)c(Cl)c4)cn23)n1 [compound 853, 6-(2-(3-Chloro-4-fluorophenyl)pyridin-3-yl)-3-(1-methyl-1H-pyrazol-3-yl)imidazo[1,2-a]pyridine] |
| 4670 | COc1cnc(-c2ccc(F)c(C)c2)c(-c2ccn3ncnc3c2)c1 [compound 854, 7-(2-(4-Fluoro-3-methylphenyl)-5-methoxypyridin-3-yl)-[1,2,4]triazolo[1,5-a]pyridine] |
| 3440 | COc1cnc(-c2cccc(Cl)c2)c(-c2ccn3ncnc3c2)c1 [compound 855, 7-(2-(3-Chlorophenyl)-5-methoxypyridin-3-yl)-[1,2,4]triazolo[1,5-a]pyridine] |
| 5580 | COc1cnc(-c2ccc(F)c(Cl)c2)c(-c2ccn3ncnc3c2)c1 [compound 856, 7-(2-(3-Chloro-4-fluorophenyl)-5-methoxypyridin-3-yl)-[1,2,4]triazolo[1,5-a]pyridine] |
| 1850 | COc1cnc(-c2cc(Cl)c(F)cc2F)c(-c2ccn3ncnc3c2)c1 [compound 857, 7-(2-(5-Chloro-2,4-difluorophenyl)-5-methoxypyridin-3-yl)-[1,2,4]triazolo[1,5-a]pyridine] |
| 2370 | COc1cnc(-c2cc(Cl)ccc2F)c(-c2ccn3ncnc3c2)c1 [compound 858, 7-(2-(5-Chloro-2-fluorophenyl)-5-methoxypyridin-3-yl)-[1,2,4]triazolo[1,5-a]pyridine] |
| 3700 | COc1cnc(-c2cccc(C(F)(F)F)c2)c(-c2ccn3ncnc3c2)c1 [compound 859] |
| 9980 | Fc1cnc(-c2ccc(F)c(Cl)c2)c(-c2ccn3ncnc3c2)c1 [compound 860, 7-(2-(3-Chloro-4-fluorophenyl)-5-fluoropyridin-3-yl)-[1,2,4]triazolo[1,5-a]pyridine] |
| 4010 | Fc1cnc(-c2cc(Cl)c(F)cc2F)c(-c2ccn3ncnc3c2)c1 [compound 861, 7-(2-(5-Chloro-2,4-difluorophenyl)-5-fluoropyridin-3-yl)-[1,2,4]triazolo[1,5-a]pyridine] |
| 1840 | Fc1cnc(-c2cc(Cl)ccc2F)c(-c2ccn3ncnc3c2)c1 [compound 862, 7-(2-(5-Chloro-2-fluorophenyl)-5-fluoropyridin-3-yl)-[l 1,2,4]triazolo[1,5-a]pyridine] |
| 5890 | Fc1cnc(-c2cccc(C(F)(F)F)c2)c(-c2ccn3ncnc3c2)c1 [compound 863, 7-(2-(3-((Difluoro-13-methyl)-12-fluoranyl)phenyl)-5-fluoropyridin-3-yl)-[1,2,4]triazolo[1,5-a]pyridine] |
| 1540 | Cc1cnc(-c2ccc(F)c(Cl)c2)c(-c2ccn3ncnc3c2)c1 [compound 864, 7-(2-(3-Chloro-4-fluorophenyl)-5-methylpyridin-3-yl)-[1,2,4]triazolo[1,5-a]pyridine] |
| 608 | Cc1cnc(-c2cc(Cl)c(F)cc2F)c(-c2ccn3ncnc3c2)c1 [compound 865, 7-(2-(5-Chloro-2,4-difluorophenyl)-5-methylpyridin-3-yl)-[l 1,2,4]triazolo[1,5-a]pyridine] |
| 251 | Cc1cnc(-c2cc(Cl)ccc2F)c(-c2ccn3ncnc3c2)c1 [compound 866, 7-(2-(5-Chloro-2-fluorophenyl)-5-methylpyridin-3-yl)-[1,2,4]triazolo[1,5-a]pyridine] |
